Reference: the NIST ThermoML archive (doi:10.1016/j.tca.2005.10.008)

Legend:
[1] = Liquid; for mass density: 101.33 kPa, Pycnometric method; for viscosity / speed of sound: 101.3 kPa; for viscosity: Capillary tube (Ostwald / Ubbelohde) method; for speed of sound: Linear variable-path acoustic interferometer; for Normal boiling temperature: Distillation
[2] = xn = mol fraction of the nth substance listed; conditions: 303.15 K, 101 kPa, Liquid; for viscosity: Capillary tube (Ostwald / Ubbelohde) method; for excess molar volume: Direct dilatometry; for speed of sound: Linear variable-path acoustic interferometer

c1ccc2c(c1)CCCC2 [1,2,3,4-tetrahydronaphthalene]
[1]
Conditions | mass density [kg/m3] | speed of sound [m/s] | viscosity [mPa·s]
298.15 K | 965.89 | – | –
303.15 K | 955.44 | 1477 | 1.749

Conditions | Normal boiling temperature [°C]
[1] | 208.30

c1ccc2c(c1)CCCC2 [1,2,3,4-tetrahydronaphthalene] + CC(C)OC(C)C
[2]
Conditions | excess molar volume [m3/mol] | speed of sound [m/s] | viscosity [mPa·s]
x2 = 0 | – | 1477 | 1.749
x2 = 0.1358 | -7.08e-07 | 1396.1 | 1.445
x2 = 0.2509 | -1.135e-06 | 1342.5 | 1.223
x2 = 0.3997 | -1.459e-06 | 1276.3 | 0.976
x2 = 0.4474 | -1.505e-06 | 1253 | 0.904
x2 = 0.5718 | -1.503e-06 | 1191.8 | 0.739
x2 = 0.7163 | -1.261e-06 | 1119.7 | 0.578
x2 = 0.8473 | -8.13e-07 | 1054.2 | 0.46

CC(C)CC(C)(C)C [2,2,4-trimethylpentane]
[1], 303.15 K
Conditions | speed of sound [m/s] | viscosity [mPa·s]
– | 1060.8 | 0.455

CC(C)CC(C)(C)C [2,2,4-trimethylpentane] + CC(C)OC(C)C
[2], x2 = 0
Conditions | speed of sound [m/s] | viscosity [mPa·s]
– | 1060.8 | 0.455

c1ccccc1 [benzene]
[1]
Conditions | mass density [kg/m3] | speed of sound [m/s] | viscosity [mPa·s]
298.15 K | 873.64 | – | –
303.15 K | 868.39 | 1275.5 | 0.566

Conditions | Normal boiling temperature [°C]
[1] | 80.00

c1ccccc1 [benzene] + CC(C)OC(C)C
[2], x2 = 0
Conditions | speed of sound [m/s] | viscosity [mPa·s]
– | 1275.5 | 0.566

C1CCCCC1 [cyclohexane]
[1]
Conditions | mass density [kg/m3] | speed of sound [m/s] | viscosity [mPa·s]
298.15 K | 773.98 | – | –
303.15 K | 769.14 | 1231 | 0.793

Conditions | Normal boiling temperature [°C]
[1] | 80.80

C1CCCCC1 [cyclohexane] + CC(C)OC(C)C
[2], x2 = 0
Conditions | speed of sound [m/s] | viscosity [mPa·s]
– | 1231 | 0.793

C1CCC2CCCCC2C1 (centres undefined) [decahydronaphthalene]
[1]
Conditions | mass density [kg/m3] | speed of sound [m/s] | viscosity [mPa·s]
298.15 K | 879.14 | – | –
303.15 K | 868.5 | 1404 | 2.091

Conditions | Normal boiling temperature [°C]
[1] | 191.10

C1CCC2CCCCC2C1 (centres undefined) [decahydronaphthalene] + CC(C)OC(C)C
[2]
Conditions | excess molar volume [m3/mol] | speed of sound [m/s] | viscosity [mPa·s]
x2 = 0 | – | 1404 | 2.091
x2 = 0.1596 | -4e-07 | 1329 | 1.586
x2 = 0.2785 | -6.03e-07 | 1282.3 | 1.289
x2 = 0.4286 | -7.39e-07 | 1220.1 | 0.989
x2 = 0.4734 | -7.6e-07 | 1199.7 | 0.913
x2 = 0.6153 | -7.24e-07 | 1141.3 | 0.706
x2 = 0.7514 | -5.84e-07 | 1084.9 | 0.553
x2 = 0.8663 | -3.59e-07 | 1035.8 | 0.448

CC(C)OC(C)C [diisopropyl ether]
[1]
Conditions | mass density [kg/m3] | speed of sound [m/s] | viscosity [mPa·s]
298.15 K | 718.14 | – | –
303.15 K | 711.97 | 974.9 | 0.35

Conditions | Normal boiling temperature [°C]
[1] | 68.20

CC(C)OC(C)C [diisopropyl ether] + C1CCC2CCCCC2C1
[2], x1 = 1
Conditions | speed of sound [m/s] | viscosity [mPa·s]
– | 974.9 | 0.35

CC(C)OC(C)C [diisopropyl ether] + C1CCCCC1
[2]
Conditions | excess molar volume [m3/mol] | speed of sound [m/s] | viscosity [mPa·s]
x1 = 0.118 | 3.2e-08 | 1187.4 | 0.666
x1 = 0.2172 | 4.7e-08 | 1157.7 | 0.589
x1 = 0.357 | 6.3e-08 | 1117.9 | 0.513
x1 = 0.3972 | 6.6e-08 | 1106.9 | 0.494
x1 = 0.5029 | 6.9e-08 | 1080.7 | 0.452
x1 = 0.6777 | 6.3e-08 | 1041.6 | 0.403
x1 = 0.8199 | 3.9e-08 | 1011.6 | 0.373
x1 = 1 | – | 974.9 | 0.35

CC(C)OC(C)C [diisopropyl ether] + CC(C)CC(C)(C)C
[2]
Conditions | excess molar volume [m3/mol] | speed of sound [m/s] | viscosity [mPa·s]
x1 = 0.1561 | 1.43e-07 | 1047.6 | 0.441
x1 = 0.2397 | 2.09e-07 | 1040.4 | 0.432
x1 = 0.3083 | 2.28e-07 | 1034.5 | 0.422
x1 = 0.4565 | 2.79e-07 | 1022.6 | 0.405
x1 = 0.4804 | 2.75e-07 | 1019.7 | 0.4
x1 = 0.6222 | 2.5e-07 | 1007.5 | 0.38
x1 = 0.8133 | 1.54e-07 | 991.1 | 0.36
x1 = 0.8775 | 1.24e-07 | 985.6 | 0.355
x1 = 1 | – | 974.9 | 0.35

CC(C)OC(C)C [diisopropyl ether] + CCCCCC
[2]
Conditions | excess molar volume [m3/mol] | speed of sound [m/s] | viscosity [mPa·s]
x1 = 0.1305 | 1.37e-07 | 1039.2 | 0.312
x1 = 0.2555 | 2.45e-07 | 1027.5 | 0.315
x1 = 0.392 | 3.26e-07 | 1016 | 0.319
x1 = 0.4661 | 3.44e-07 | 1009.9 | 0.321
x1 = 0.5633 | 3.34e-07 | 1002.6 | 0.325
x1 = 0.605 | 3.25e-07 | 999.6 | 0.326
x1 = 0.7173 | 2.79e-07 | 992.4 | 0.331
x1 = 0.846 | 1.74e-07 | 984.4 | 0.338
x1 = 1 | – | 974.9 | 0.35

CC(C)OC(C)C [diisopropyl ether] + CCCCCCC
[2]
Conditions | excess molar volume [m3/mol] | speed of sound [m/s] | viscosity [mPa·s]
x1 = 0.1462 | 1.67e-07 | 1090.7 | 0.385
x1 = 0.2667 | 2.45e-07 | 1072.8 | 0.377
x1 = 0.4165 | 3.16e-07 | 1050.6 | 0.365
x1 = 0.4774 | 3.24e-07 | 1041.8 | 0.359
x1 = 0.5331 | 3.27e-07 | 1033.9 | 0.356
x1 = 0.6068 | 3.01e-07 | 1023.9 | 0.352
x1 = 0.7371 | 2.61e-07 | 1006.9 | 0.346
x1 = 0.8642 | 1.73e-07 | 991.3 | 0.345
x1 = 1 | – | 974.9 | 0.35

CC(C)OC(C)C [diisopropyl ether] + CCCCCCCC
[2]
Conditions | excess molar volume [m3/mol] | speed of sound [m/s] | viscosity [mPa·s]
x1 = 0.165 | 1.58e-07 | 1125.5 | 0.464
x1 = 0.2501 | 2.26e-07 | 1112.3 | 0.451
x1 = 0.3816 | 2.95e-07 | 1090.5 | 0.429
x1 = 0.4395 | 3.04e-07 | 1080.3 | 0.417
x1 = 0.4911 | 3.02e-07 | 1071.7 | 0.404
x1 = 0.6217 | 2.78e-07 | 1048.3 | 0.381
x1 = 0.7805 | 2.03e-07 | 1018.9 | 0.36
x1 = 0.8706 | 1.26e-07 | 1000.4 | 0.354
x1 = 1 | – | 974.9 | 0.35

CC(C)OC(C)C [diisopropyl ether] + c1ccc2c(c1)CCCC2
[2], x1 = 1
Conditions | speed of sound [m/s] | viscosity [mPa·s]
– | 974.9 | 0.35

CC(C)OC(C)C [diisopropyl ether] + c1ccccc1
[2]
Conditions | excess molar volume [m3/mol] | speed of sound [m/s] | viscosity [mPa·s]
x1 = 0.0962 | -1.61e-07 | 1232.1 | 0.542
x1 = 0.1813 | -2.87e-07 | 1201.5 | 0.522
x1 = 0.3084 | -4.17e-07 | 1159.2 | 0.492
x1 = 0.3375 | -4.42e-07 | 1148.4 | 0.486
x1 = 0.4703 | -4.86e-07 | 1108.5 | 0.456
x1 = 0.6323 | -4.62e-07 | 1064.1 | 0.422
x1 = 0.7927 | -3.32e-07 | 1022.2 | 0.389
x1 = 1 | – | 974.9 | 0.35

CCCCCCC [heptane]
[1]
Conditions | mass density [kg/m3] | speed of sound [m/s] | viscosity [mPa·s]
298.15 K | 678.93 | – | –
303.15 K | 674.38 | 1110.5 | 0.387

Conditions | Normal boiling temperature [°C]
[1] | 98.20

CCCCCCC [heptane] + CC(C)OC(C)C
[2], x2 = 0
Conditions | speed of sound [m/s] | viscosity [mPa·s]
– | 1110.5 | 0.387

CCCCCC [hexane]
[1]
Conditions | mass density [kg/m3] | speed of sound [m/s] | viscosity [mPa·s]
298.15 K | 654.9 | – | –
303.15 K | 650.64 | 1052.9 | 0.309

Conditions | Normal boiling temperature [°C]
[1] | 68.70

CCCCCC [hexane] + CC(C)OC(C)C
[2], x2 = 0
Conditions | speed of sound [m/s] | viscosity [mPa·s]
– | 1052.9 | 0.309

CCCCCCCC [octane]
[1]
Conditions | mass density [kg/m3] | speed of sound [m/s] | viscosity [mPa·s]
298.15 K | 697.36 | – | –
303.15 K | 692.56 | 1152 | 0.477

Conditions | Normal boiling temperature [°C]
[1] | 126.00

CCCCCCCC [octane] + CC(C)OC(C)C
[2], x2 = 0
Conditions | speed of sound [m/s] | viscosity [mPa·s]
– | 1152 | 0.477
